Measured values taken from US7429564B2, “Oral insulin therapy” (Emisphere Technologies, Inc., priority 2002, dated 2008).
Values joined by “and” are separate entries in the source; they are usually repeats but may differ in a detail not shown here. Equal values may be shown once. Marks after values point to notes of the source that are not given here.

Experiments:
plasma glucose = test: Example 5: plasma glucose pharmacodynamics; type: in vivo, human
Procedure: For insulin/4-CNAB treatment Groups 2 and 3, subjects' blood samples (1 drop per sample) were drawn at 15 minutes before dosing, and at 5, 10, 15, 20, 25, 30, 35, 40, and 50 minutes and at 1, 1.25, 1.5, 1.75, 2, 2.5, 3, 4, 6, 8 and 12 hours post-dose (21 samples per treatment for Insulin/4-CNAB dosing groups) for plasma glucose, insulin and C-peptide measurements. For the 4-CNAB alone treatment Group 1, blood samples were collected before dosing (−15 minutes), and at 30 minutes and at 2 hr post-dose for blood glucose measurements. For the insulin alone control group (minimum 3 subjects), blood samples (3 mL in sodium heparin tube) were drawn at 15 minutes before dosing, and at 10, 20, 30, 40, 50 minutes and 1, 1.25, 2, 2.5, 3 and 6 hr post-dose (12 samples per treatment). The blood samples for glucose were assayed in real time using a Glucometer®. These measurements were used for detection of onset of hypoglycemia, so rescue action could be taken where necessary. Plasma glucose, insulin and C-peptide measurements were done according to standard procedures.
Plasma glucose was measured based on a timed-endpoint method using a BECKMAN Synchron CX system that mixes exact proportions of reagents that catalyse the phosphorylation of glucose. The Synchron CX measures changes in the absorbance spectrum at 340 nm at a fixed time interval. The change in absorbance is directly proportional to the concentration of glucose in the sample.
On the basis of plasma concentrations of glucose, PD analysis was performed using WinNonlin™ Professional version 3.2. The profiles for glucose, glucose change from baseline and glucose percentage change from baseline were evaluated up to 6 hours as food was given 6 hours following insulin treatment. The following PD parameters were computed for plasma glucose concentration: AURC(0-2), AURC(0-t) (total response), Rmax (minimum value), tRmax and concentrations (R^b) and corresponding time (t^b) immediately prior to intervention for hypoglycemia. The following PD parameters were computed for plasma glucose concentration change from baseline: AUEC(0-2), AUEC(0-t) (baseline subtracted), Emax (baseline subtracted), tEmax (obtained without interpolation), percent change from baseline and concentrations (E^c) and corresponding time (t^c) immediately prior to intervention for hypoglycemia.
Similarly, in order to take into account baseline levels of glucose, PD analysis was conducted based on the percent change (decrease or increase) in glucose concentration from the baseline, where baseline was taken as the pre-dose concentration levels, rather than absolute values only. The glucose concentration percent change from baseline values were also calculated, and profiles were tabulated and plotted. Thus, […]

aorta mRNA expression = test: GeneChip analysis of aorta mRNA expression after oral and SC dosing of insulin; type: in vivo, Sprague-Dawley rats; details: for Changes in aorta mRNA levels (control groups): component given orally alone
Procedure: A total of 60 male Sprague-Dawley rats were fasted for 24 hours and then anesthetized with Thorazine (1.5 mg/kg, im) and Ketamine (44 mg/kg, im). They were then divided into the following 5 treatment groups: • 1. H2O (p.o. 1 mL/kg) • 2. Carrier (p.o., 1 mL/kg; 200 mg/kg) • 3. Insulin (p.o., 1 ml/kg; 0.5 mg/kg) • 4. Insulin and Carrier (p.o., 1 ml/kg; 0.5 mg/kg Insulin and 200 mg/kg 1182) • 5. Insulin (s.c., 0.05 mg/kg) • There were twelve animals per group, with three being sacrificed at 30, 60, 120 and 180 minutes. For serum insulin and blood glucose monitoring, 0.4 mL of blood was drawn from the tail artery. Following euthanasia, an aorta sample was removed and snap-frozen in liquid nitrogen. All animal studies where conducted in accordance with the IACUC approved protocols.
Total RNA was prepared from the frozen tissue sample following the protocol for use of Trizol Reagent (Invitrogen, Inc., Carlsbad, Calif.). The samples were then further cleaned up by use of the Qiagen Midi Kit (Valencia, Calif.). Quality of each RNA sample was assessed using agarose gel electrophoresis and UV absorbance at 260 and 280. Acceptable RNA samples were pooled in equal quantities on a mass basis. This pooled sample was used to prepare cDNA following the protocol provided by Affymetrix. This sample was then used as template in an ii: vitro transcription labeling and amplification reaction using the Enzo BioArray High Yield RNA Transcript Labeling Kit (Affymetrix Inc., Santa Clara, Calif.). 15 μg of labeled transcript was then fragmented and used to prepare a hybridization solution as described in the Affymetrix GeneChip Protocol, Affymetrix, Inc., 2000.
The samples were hybridized to a Test Array and 5′ to 3′ ratios, detection limit, and image quality were assessed to ensure the quality of the labeled sample. Acceptable samples were then hybridized to an Affymetrix Rat U34A array. Washing and staining of these arrays was performed using the standard Affymetrix protocols. Array quality was assessed in the same manner as the Test array. Acceptable samples were analyzed both in the expression patterns seen across the group as well as pair wise in the following manner:
Fold change were determined by the Affymetrix Microarray Suite Software package and values below 2 fold were considered insignificant. This software package analysis compares the individual members of each probe set to determine a Difference Call. In this report all calculated fold changes are used in the figures, however in the results and discussion only those fold changes that received an Increasing or Decreasing call by the Affymetrix software were used to draw conclusions.

[1] = 10 Units SC, hypoglycemic subjects
[2] = 150 Units oral insulin alone, all subjects
[3] = 150 Units oral insulin alone, non-hypoglycemic subjects

## O=C(O)CCCNC(=O)c1ccc(Cl)cc1O [4-CNAB, 4-[(4-chloro, 2-hydroxybenzoyl)amino]butanoic acid]
Plasma glucose; 4-CNAB alone, oral
  Effect on plasma glucose levels: no significant effect on plasma glucose levels
Aorta mRNA expression
  Changes in aorta mRNA levels (control groups): no consistent and significant changes in mRNA levels in the aorta

## SC insulin: human regular insulin injected subcutaneously (Humulin R or equivalent; Calbiochem insulin in the rat studies)
Plasma glucose; 10 Units SC, carrier 0, unaudited data
  % Max Glucose Reduction: 32.3 ± 9.6%
Plasma glucose; 10 Units SC, all subjects
  Glucose change AUEC(0-2): -0.71 ± 1.32 mmol·h/L
  Glucose change AUEC(0-6): -1.40 ± 4.41 mmol·h/L
  Glucose change from baseline Emax: -2.28 ± 0.5 mmol/L and -2.28 ± 0.40 mmol/L
  Glucose change tEmax, median: 1.00 h
  Maximum % change of glucose from baseline up to 6 h: −39.82±8.26%
  Plasma glucose AURC(0-2): 10.40 ± 1.36 mmol·h/L
  Plasma glucose AURC(0-6): 32.02 ± 4.66 mmol·h/L
  Plasma glucose Rmax (minimum concentration): 3.31 ± 0.42 mmol/L
  Plasma glucose tRmax, median: 1.00 h
Plasma glucose; [1]
  Glucose change AUEC(0-6): 1.00 mmol·h/L
  Glucose change E^c (immediately prior to recovery from hypoglycemia): -0.71 ± 1.32 mmol/L
  Glucose change from baseline Emax: -2.28 ± 0.40 mmol/L
  Glucose change tEmax, median: 1.00 h
  Maximum % change of glucose from baseline up to 6 h: −39.82 ± 8.26%
  Plasma glucose AURC(0-2): 10.40 ± 1.36 mmol·h/L
  Plasma glucose AURC(0-6): 32.02 ± 4.66 mmol·h/L
  Plasma glucose R^b (immediately prior to recovery from hypoglycemia): 3.45 ± 0.41 mmol/L
  Plasma glucose Rmax (minimum concentration): 3.31 ± 0.42 mmol/L
  Plasma glucose tRmax, median: 1.00 h
  Plasma glucose t^b, median: 1.00 h
Aorta mRNA expression; 180 minutes
  ICAM-1 mRNA: increased
  c-myc mRNA: significant increase
Aorta mRNA expression; vs sham
  IL-6 mRNA: significant increase

## oral insulin alone: recombinant human zinc insulin given orally without delivery agent
Plasma glucose; 150 Units oral insulin alone
  Change in glucose concentrations: only a slight change in glucose concentrations
Plasma glucose; [2]
  Glucose change AUEC(0-2): -0.63 ± 0.77 mmol·h/L
  Glucose change from baseline Emax: -0.79 ± 0.43 mmol/L
  Glucose change tEmax, median: 6.00 h
  Maximum % change of glucose from baseline up to 6 h: −12.41 ± 6.48%
  Plasma glucose AURC(0-2): 11.06 ± 0.69 mmol·h/L
  Plasma glucose AURC(0-6): 32.15 ± 1.41 mmol·h/L
  Plasma glucose Rmax (minimum concentration): 5.08 ± 0.20 mmol/L
  Plasma glucose tRmax, median: 6.00 h
Plasma glucose; 150 Units oral insulin alone, all subjects, AUEC(0-t) for 6 h sampling schedule
  Glucose change AUEC(0-6): −3.01 ± 2.44^d mmol · h/L
Plasma glucose; [3]
  Glucose change AUEC(0-2): -0.63 ± 0.77 mmol·h/L
  Glucose change from baseline Emax: -0.79 ± 0.43 mmol/L
  Glucose change tEmax, median: 6.00 h
  Maximum % change of glucose from baseline up to 6 h: −12.41 ± 6.48%
  Plasma glucose AURC(0-2): 11.06 ± 0.69 mmol·h/L
  Plasma glucose Rmax (minimum concentration): 5.08 ± 0.20 mmol/L
  Plasma glucose tRmax, median: 6.00 h
Plasma glucose; 150 Units oral insulin alone, non-hypoglycemic subjects, AUEC(0-t) for 6 h sampling schedule
  Glucose change AUEC(0-6): −3.01 ± 2.44^d mmol · h/L
Plasma glucose; 150 Units oral insulin alone, non-hypoglycemic subjects, AURC(0-t) for 6 h sampling schedule
  Plasma glucose AURC(0-6): 32.15 ± 1.41^c mmol · h/L
Aorta mRNA expression
  Changes in aorta mRNA levels (control groups): no consistent and significant changes in mRNA levels in the aorta
